In the supplement of paper PMC13380429:

Legend:
Conditions in all cases: 72 h
Caco-2 [1] = experiment: drug sensitivity score (DSS) for viability; higher = more toxic; extreme values may be limits of the assay
U2OS [2] = experiment: as above
HepG2 [3] = experiment: as above
Calu-3 [4] = experiment: as above
Vero E6 [5] = experiment: as above
Caco-2 [6] = experiment: relative viability EC50 (midpoint between 100% and the lowest measured viability); higher = less toxic
U2OS [7] = experiment: as above
HepG2 [8] = experiment: as above
Calu-3 [9] = experiment: as above
Vero E6 [10] = experiment: as above
Caco-2 [11] = experiment: cell viability relative to DMSO; higher = less toxic
U2OS [12] = experiment: as above
HepG2 [13] = experiment: as above
Calu-3 [14] = experiment: as above
Vero E6 [15] = experiment: as above

Compound | drug sensitivity score (Caco-2 [1]) | drug sensitivity score (U2OS [2]) | drug sensitivity score (HepG2 [3]) | drug sensitivity score (Calu-3 [4]) | drug sensitivity score (Vero E6 [5]) | relative viability EC50 (Caco-2 [6]) [µM] | relative viability EC50 (U2OS [7]) [µM] | relative viability EC50 (HepG2 [8]) [µM] | relative viability EC50 (Calu-3 [9]) [µM] | relative viability EC50 (Vero E6 [10]) [µM] | cell viability (Caco-2 [11]; 1 nM) [%] | cell viability (Caco-2 [11]; 10 nM) [%] | cell viability (Caco-2 [11]; 100 nM) [%] | cell viability (Caco-2 [11]; 1000 nM) [%] | cell viability (Caco-2 [11]; 10000 nM) [%] | cell viability (U2OS [12]; 1 nM) [%] | cell viability (U2OS [12]; 10 nM) [%] | cell viability (U2OS [12]; 100 nM) [%] | cell viability (U2OS [12]; 1000 nM) [%] | cell viability (U2OS [12]; 10000 nM) [%] | cell viability (HepG2 [13]; 1 nM) [%] | cell viability (HepG2 [13]; 10 nM) [%] | cell viability (HepG2 [13]; 100 nM) [%] | cell viability (HepG2 [13]; 1000 nM) [%] | cell viability (HepG2 [13]; 10000 nM) [%] | cell viability (Calu-3 [14]; 1 nM) [%] | cell viability (Calu-3 [14]; 10 nM) [%] | cell viability (Calu-3 [14]; 100 nM) [%] | cell viability (Calu-3 [14]; 1000 nM) [%] | cell viability (Calu-3 [14]; 10000 nM) [%] | cell viability (Vero E6 [15]; 1 nM) [%] | cell viability (Vero E6 [15]; 10 nM) [%] | cell viability (Vero E6 [15]; 100 nM) [%] | cell viability (Vero E6 [15]; 1000 nM) [%] | cell viability (Vero E6 [15]; 10000 nM) [%]
O=C(O)c1ccc(NC(=O)[C@H](Cc2ccc(O)cc2)NC(=O)c2ccccc2)cc1 [bentiromide] | 0 | 0 | 0 | 0 | 0 | > 10 | > 10 | > 10 | > 10 | > 10 | 92.1 | 92 | 92.3 | 87 | 104 | 105 | 102 | 107 | 99.5 | 108 | 91.9 | 116 | 102 | 106 | 102 | 107 | 101 | 104 | 95.4 | 95 | 93.5 | 107 | 94.4 | 99 | 106
O=C(O)CCc1ccc(NCc2cccc3c2CCCN3CCOc2ccccc2)cc1F | 0 | 0 | 0 | 0 | 0 | > 10 | > 10 | > 10 | > 10 | > 10 | 106 | 96.2 | 101 | 106 | 96.4 | 101 | 96.5 | 99 | 97.4 | 104 | 97.9 | 101 | 100 | 100 | 95 | 93.2 | 97.4 | 91.6 | 94.8 | 99.6 | 97.5 | 98.2 | 97.4 | 98.6 | 96
C[C@]12CCC(=O)C=C1CC[C@@H]1[C@@H]2[C@@H](O)C[C@@]2(C)[C@H]1CC[C@]2(O)C(=O)COP(=O)(O)O [hydrocortisone-phosphate] | 0 | 0 | 0.1 | 0 | 0 | > 10 | > 10 | > 10 | > 10 | > 10 | 100 | 101 | 103 | 110 | 94.1 | 101 | 101 | 97.1 | 100 | 95 | 99.2 | 99.8 | 105 | 89.5 | 94.3 | 98.3 | 102 | 98.5 | 99.8 | 93.8 | 106 | 100 | 106 | 100 | 104
OC[C@@H](O)[C@H]1O[C@@H]2O[C@H](C(Cl)(Cl)Cl)O[C@@H]2[C@H]1O [chloralose] | 0 | 0 | 0 | 0 | 0 | > 10 | > 10 | > 10 | > 10 | > 10 | 101 | 103 | 80.5 | 101 | 87.4 | 98.1 | 106 | 98.5 | 99.6 | 98.4 | 98.1 | 103 | 102 | 98.9 | 89.2 | 93.7 | 93.8 | 95.5 | 104 | 98.8 | 98.1 | 99 | 98.8 | 95.9 | 97.8
CC(C)(Sc1ccc(CCN(CCCCC2CCCCC2)C(=O)NC2CCCCC2)cc1)C(=O)O [GW-7647] | 0 | 0 | 0 | 0 | 0 | > 10 | > 10 | > 10 | > 10 | > 10 | 87.7 | 101 | 98.3 | 104 | 103 | 101 | 101 | 105 | 96.2 | 98.2 | 87 | 95.3 | 99.1 | 87 | 101 | 97.9 | 110 | 100 | 94.6 | 100 | 97.3 | 100 | 91.1 | 97.7 | 110
O=C1C[C@@]2(C(=O)N1)C(=O)N(Cc1ccc(Br)cc1F)C(=O)c1cccn12 [ranirestat] | 0 | 0 | 0 | 0 | 0 | > 10 | > 10 | > 10 | > 10 | > 10 | 99.6 | 98.4 | 101 | 98.6 | 103 | 96.8 | 97.1 | 103 | 96.8 | 100 | 102 | 106 | 90.6 | 99.2 | 104 | 92.6 | 104 | 104 | 102 | 95.8 | 94 | 96.7 | 90.8 | 92.2 | 100
Cc1cc(-c2nncc3c(C(C)(C)C)c(OCc4ncnn4C)nn23)no1 [MRK-016] | 0 | 0 | 0 | 0 | 0 | > 10 | > 10 | > 10 | > 10 | > 10 | 97.7 | 104 | 96.6 | 89 | 97.2 | 101 | 104 | 99.1 | 101 | 102 | 105 | 94.9 | 104 | 98.1 | 96.8 | 104 | 111 | 108 | 93.9 | 100 | 100 | 102 | 98.5 | 97.6 | 94.5
